Here are results for four compounds from patent US5081123A, “Quinoxaline compound and their preparation and use” (Novo Nordisk A/S, priority 1988, dated 1992).

As usually defined, the EC50 is the concentration that produces a half-maximal response. The low end stands for higher potency in that assay, the high end for lower potency in that assay.

Assay [1] concerns the target quisqualate type receptors (3H-AMPA, rat cerebral cortical membrane homogenate). Put plainly: 3H-AMPA binding (displacement from quisqualate type receptors). The conditions noted are these: 5 nM 3H-AMPA, 0° C., 30 min, pH 7.1. As for the experimental part:
(§1) The pharmacological properties of the compounds of the present invention can be illustrated by determining their capability for displacing radioactively labelled 2-amino-3-hydroxy-5-methyl-4-isoxazolepropionic acid (AMPA) from the quisqualate type receptors.
The displacement activity of the compounds may be shown by determining the IC50 value which represents the concentration (μg/ml) which causes a displacement of 50% of the specific binding of ^3 H-AMPA.
500 μl of thawed rat cerebral cortical membrane homogenate in Tris-HCl (30 mM), CaCl2 (2.5 mM) and KSCN (100 mM) pH 7.1 were incubated at 0° C. for 30 min. with 25 μl ^3 H-AMPA (5 nM final concentration) and the test compound and buffer. Nonspecific binding was determined by incubation with L-glutamic acid (600 μM final concentration). The binding reaction was terminated by adding 5 ml of ice-cold buffer followed by filtration through Whatman GF/C glass fibre filters and 2×5 ml wash with ice-cold buffer. Bound radioactivity was measured by scintillation counting. IC50 was determined by Hill analysis of at least four concentrations of test compound.

The target of assay [2] is quisqualate receptors (quisqualic acid stimulated 3H-GABA efflux, cultured cortical neurones). The assay can be described thus: Antagonism of quisqualic acid stimulated 3H-GABA efflux from cultured cortical neurones. The conditions noted are these: Table 1; test not stated. In kind it is cell-based, mouse. The procedure: as §1
The antagonism is measured by determining the EC50 value which represents the concentration which reduces the rate of quisqualic acid stimulated ^3 H-GABA efflux by 50%.
Cerebral cortices of 16 day old mouse embryos are chopped in 0.4×0.4 mm cubes. The tissue is dissociated by mild trypsinization (0.1% (wt/vol) trypsin, 37° C., 15 min) and subsequently inoculated into poly-L-lysine-coated 3 cm Petri dishes containing a slightly modified DMEM (24.5 mM KCl, 30 mM glucose) supplemented with p-aminobenzoate (7μM), insulin (100 mU/1) and 10% (vol/vol) horse serum. Cells are maintained in culture for 5-7 days with the addition of the antimitotic agent cytosine arbinoside (40 μM) from day 2 in vitro to prevent glial proliferation. For further details and references see Drejer et al. Exp. Brain Res. 47, 259 (1982)).
Release experiments are performed using the model described by Drejer et al. (Life Sci. 38, 2077 (1986)). Cerebral cortex interneurons cultured in Petri dishes (30 mm) are added 100 μM gamma-vinyl-GABA one hour before the experiment in order to inhibit degradation of GABA in the neurons. 30 min. before the experiment 5 μCi ^3 H-GABA is added to each culture and after this preloading period the cell monolayer at the bottom of the dish is covered with a piece of nylon mesh to protect the cells against mechanical damage and to facilitate dispersion of medium over the cell layer. The preloading medium is removed and the Petri dishes are placed in a superfusion system. This system consists of a peristaltic pump continuously delivering thermostated 37° C. superfusion medium (HEPES buffered saline (HBS): 10 mM HEPES, 135 mM NaCl, 5 mM KCl, […] 1.0 mM CaCl2 and 6 mM D-glucose; pH 7.4) from a reservoir to the top of the slightly tilted Petri dish. The medium is continuously collected from the lower part of the dish and delivered to a fraction collector. Initially, the cells are superfused with HBS for 15 min. (flow rate 2 ml/min.). The cells are stimulated for 30 sec. every 4 min. by changing the superfusion medium from HBS to a corresponding medium containing quisqualate and test compound. The release of ^3 H-GABA in the presence of quisqualate (stimulated release in cpm) are corrected for the mean basal release (Cpm) before and after the stimulation.

Structures are written as SMILES. ≈ marks a conversion by molar mass, not a printed value.

As to `O=c1[nH]c2c3c(ccc2n(O)c1=O)CCCC3` [Example 5b, 7,8,9,10-Tetrahydro-4-hydroxybenzo[f]quinoxaline-2,3(1H,4H)-dione], in assay [1], the “IC50 (concentration which causes a displacement of 50% of the specific binding of 3H-AMPA)” value stood at 0.49 µg/mL. In addition, the EC50 in assay [2] was 0.14 µg/mL (≈ 0.603 µM).

Take `O=c1[nH]c2c3cccnc3ccc2n(O)c1=O` [Example 4b, 4-Hydroxypyrido[3,2-f]quinoxaline-2,3(1H,4H)-dione]: the “IC50 (concentration which causes a displacement of 50% of the specific binding of 3H-AMPA)” value in assay [1] was determined as 0.23 µg/mL. The compound further returned an EC50 in assay [2] of 0.16 µg/mL (≈ 0.698 µM).

In the case of `O=c1[nH]c2c3ccccc3ccc2n(O)c1=O` [Example 1b, 4-Hydroxy-benzo[f]quinoxaline-2,3(1H,4H)-dione], the “IC50 (concentration which causes a displacement of 50% of the specific binding of 3H-AMPA)” value in assay [1] was determined as 0.61 µg/mL. In assay [2], this compound gave a concentration giving a half-maximal response (EC50) of 0.12 µg/mL (≈ 0.526 µM).

As to `N#Cc1cc2c([nH]c(=O)c(=O)n2O)c2ccccc12` [Example 2c, 6-Cyano-4-hydroxy-benzo[f]quinoxaline-2,3(1H,4H)-dione], in assay [1], the “IC50 (concentration which causes a displacement of 50% of the specific binding of 3H-AMPA)” value turned out to be 0.39 µg/mL. This compound showed a concentration giving a half-maximal response (EC50) in assay [2] of 0.1 µg/mL (≈ 0.395 µM).
